Measured values reported in patent US12497396B2, “Nitrogen-containing heterocyclic derivatives, method therefor and application therefor as inhibitors of KRAS G12C for the treatment of cancers” (SHANGHAI HANSOH BIOMEDICAL CO., LTD., priority 2019, dated 2025).
Where two headings read alike, the source gives them in different places.

Tests used:
in vitro = in vitro ADME; details: for half-life at 0.5 μM: plasma
Method: (§1) Animal or human whole blood was collected, then the blood was put into a test tube containing anticoagulant, centrifuged at 3500 rpm for 10 min, and the upper layer of pale yellow plasma was collected. • 2), 10 μM of tested compound (m/M/V=C)
(§2) The compound was weighed, the stock solution was prepared with DMSO and the working solution was prepared with 100 mM phosphate buffer. • 3), 10 μM of positive control (1) Propantheline (Propantheline Mr=449.4 Da)
(§3) • 1) 285 μL of plasma and 15 μL of 10 μM compound (tested compound) were added in turn in a 96-well plate, and incubated at 37° C. • 2) 40 μL was taken out at 0, 15, 30, 60, 90, 120 min, respectively, and 160 μL of acetonitrile termination solution containing internal standard was added. • 3) After centrifugation (3500 rpm, 10 min), 50 μL of supernatant was taken out, and then diluted with 50 μL DDH2O and injected to LC-MS/MS.
(§4) • Instrument: Shimadzu LC-20 AD • Chromatographic column: phenomenex Gemiu® C18 (50*4.6 mm, 5 μM particle size); • mobile phase: A: acetonitrile, B: 0.1% formic acid solution […], 2.0-2.1 min: 90% A→5% A; flow rate: 0.8 mL/min; running time: 5.0 min; injection volume: 5 μL.
(§5) • Instrument: API4000 Liquid Chromatography-Mass Spectrometry, AB, USA; • the ion source was electrospray ionization source (ESI); • the temperature of dry gas (N2) was 500° C.; • electrospray voltage was 5500V; • the detection method was positive ion detection; • the scanning mode was selective response monitoring (MRM). • the scanning time was 0.1 s.

[1] = Plasma stability, rat plasma; type: in vitro ADME; details: for Residual rate (%) 0 min / Residual rate (%) 15 min / Residual rate (%) 30 min / Residual rate (%) 60 min / Residual rate (%) 120 min: rat plasma, 37° C.; for half-life at 0.5 μM: rat, plasma
Method: as §1, §2, §3, §4, §5

[2] = Plasma stability, dog plasma; type: in vitro ADME; details: for Residual rate (%) 0 min / Residual rate (%) 15 min / Residual rate (%) 30 min / Residual rate (%) 60 min / Residual rate (%) 120 min: dog plasma, 37° C.; for half-life at 0.5 μM: dog, plasma
Method: as §1, §2, §3, §4, §5

CYP1A2 = target: T1, CYP1A2 (Homo sapiens, UniProt P05177); experiment: CYP enzyme single point inhibition, human liver microsomes, 1A2; type: in vitro ADME; details: single point method
T1 construct: from tissue; host or cells: human liver microsomes
T1 sequence (P05177 1-516): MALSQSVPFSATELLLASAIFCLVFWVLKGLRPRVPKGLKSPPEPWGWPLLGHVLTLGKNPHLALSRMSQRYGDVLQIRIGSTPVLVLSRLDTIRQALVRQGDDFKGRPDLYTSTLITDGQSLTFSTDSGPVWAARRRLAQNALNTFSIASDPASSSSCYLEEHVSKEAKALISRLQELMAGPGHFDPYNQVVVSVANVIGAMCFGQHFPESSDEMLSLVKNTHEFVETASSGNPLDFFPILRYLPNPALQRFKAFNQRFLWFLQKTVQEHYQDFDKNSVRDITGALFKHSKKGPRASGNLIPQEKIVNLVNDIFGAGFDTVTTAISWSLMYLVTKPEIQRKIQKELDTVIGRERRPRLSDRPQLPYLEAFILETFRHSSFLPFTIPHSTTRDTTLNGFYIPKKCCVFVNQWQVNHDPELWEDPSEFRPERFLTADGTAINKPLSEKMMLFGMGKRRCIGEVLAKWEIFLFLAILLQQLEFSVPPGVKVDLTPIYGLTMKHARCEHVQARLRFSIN
Method: Using human liver microsomal incubation system, the inhibition of CYP450 enzyme subtypes by compounds was rapidly predicted by single point method. 2.5 mM NADPH: 100 mM phosphate buffer was added to 4.165 mg of NADPH (reduced nicotinamide adenine dinucleotide phosphate) to 2 mL. 0.25 mg/mL microsome: 4 mL of 100 mM phosphate buffer was added to 50 μL of 20 mg/mL microsome and mixed well. The embodiment compound to be tested was weighed and diluted to 10 mM with DMSO and then diluted to 100 μM with 100 mM phosphate buffer. • 1. In a 96-well plate, 40 μL of liver microsomes, 10 μL of substrate, 10 μL of compound to be tested were pre-incubated for 3 min. • 2. 40 μL of NADPH was added. • 3. 300 μL of acetonitrile termination solution containing internal standard was added at 20 min. • 4. Centrifugal injection.

CYP2C19 = target: T2, CYP2C19 (Homo sapiens, UniProt P33261); experiment: CYP enzyme single point inhibition, human liver microsomes, 2C19; type: in vitro ADME; details: single point method
T2 construct: from tissue; host or cells: human liver microsomes
Method: (§6) Using human liver microsomal incubation system, the inhibition of CYP450 enzyme subtypes by compounds was rapidly predicted by single point method.
(§7) 2.5 mM NADPH: 100 mM phosphate buffer was added to 4.165 mg of NADPH (reduced nicotinamide adenine dinucleotide phosphate) to 2 mL. 0.25 mg/mL microsome: 4 mL of 100 mM phosphate buffer was added to 50 μL of 20 mg/mL microsome and mixed well.
(§8) The embodiment compound to be tested was weighed and diluted to 10 mM with DMSO and then diluted to 100 μM with 100 mM phosphate buffer.
(§9) • 1. In a 96-well plate, 40 μL of liver microsomes, 10 μL of substrate, 10 μL of compound to be tested were pre-incubated for 3 min. • 2. 40 μL of NADPH was added. • 3. 300 μL of acetonitrile termination solution containing internal standard was added at 20 min. • 4. Centrifugal injection.

CYP2D6 = target: T3, CYP2D6 (Homo sapiens, UniProt P10635); experiment: CYP enzyme single point inhibition, human liver microsomes, 2D6; type: in vitro ADME; details: single point method
T3 construct: from tissue; host or cells: human liver microsomes
Method: as §6, §7, §8, §9

CYP3A4 = target: T4, CYP3A4 (Homo sapiens, UniProt P08684); experiment: CYP enzyme single point inhibition, human liver microsomes, 3A4; type: in vitro ADME; details: single point method
T4 construct: from tissue; host or cells: human liver microsomes
Method: as §6, §7, §8, §9

in vivo = details: male, Balb/c, mouse, po, 10 mg/kg
Method: 5 g of Hydroxyethyl cellulose (HEC, CMC-Na, viscosity: 800-1200 Cps) was weighed, dissolved in 1000 mL of purified water, and 10 g of Tween 80 was added. The mixture was mixed well to form a clear solution.
The embodiment compounds were weighed and added into 4-mL glass bottles, respectively, 2.4 mL of the solution was added, and ultrasound was performed for 10 minutes to obtain a colorless clear solution with a concentration of 1 mg/mL.
Balb/C mice, males; PO, after overnight fasting, respectively, at a dose of 10 mg/kg, administered in a volume of 10 mL/kg.
Blood samples were collected before administration and 0.083 h, 0.25 h, 0.5 h, 1 h, 2 h, 4 h, 6 h and 8 h after administration, the blood was placed in EDTA-2K tube, centrifuged at 4° C. 6000 rpm for 6 min to separate plasma, and stored at −80° C.; food was consumed 4 hours after drug administration.

[3] = 3A4-M, read-out: IC50 (nM) 3A4-M
[4] = 3A4-T, read-out: IC50 (nM) 3A4-T

T4 sequence (P08684 whole entry): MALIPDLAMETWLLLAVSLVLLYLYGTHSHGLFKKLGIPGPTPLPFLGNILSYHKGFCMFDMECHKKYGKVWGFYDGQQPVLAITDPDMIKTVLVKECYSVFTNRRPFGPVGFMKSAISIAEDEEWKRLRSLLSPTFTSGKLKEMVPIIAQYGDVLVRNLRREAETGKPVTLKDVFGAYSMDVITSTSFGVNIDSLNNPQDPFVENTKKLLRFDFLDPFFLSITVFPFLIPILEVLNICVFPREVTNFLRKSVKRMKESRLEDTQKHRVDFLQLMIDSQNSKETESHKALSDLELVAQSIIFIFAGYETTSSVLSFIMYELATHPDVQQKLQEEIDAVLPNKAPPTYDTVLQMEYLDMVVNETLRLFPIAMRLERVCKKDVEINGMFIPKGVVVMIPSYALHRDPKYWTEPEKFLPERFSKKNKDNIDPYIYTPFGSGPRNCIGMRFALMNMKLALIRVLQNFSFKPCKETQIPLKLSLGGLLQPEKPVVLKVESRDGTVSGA
T2 sequence (P33261 whole entry): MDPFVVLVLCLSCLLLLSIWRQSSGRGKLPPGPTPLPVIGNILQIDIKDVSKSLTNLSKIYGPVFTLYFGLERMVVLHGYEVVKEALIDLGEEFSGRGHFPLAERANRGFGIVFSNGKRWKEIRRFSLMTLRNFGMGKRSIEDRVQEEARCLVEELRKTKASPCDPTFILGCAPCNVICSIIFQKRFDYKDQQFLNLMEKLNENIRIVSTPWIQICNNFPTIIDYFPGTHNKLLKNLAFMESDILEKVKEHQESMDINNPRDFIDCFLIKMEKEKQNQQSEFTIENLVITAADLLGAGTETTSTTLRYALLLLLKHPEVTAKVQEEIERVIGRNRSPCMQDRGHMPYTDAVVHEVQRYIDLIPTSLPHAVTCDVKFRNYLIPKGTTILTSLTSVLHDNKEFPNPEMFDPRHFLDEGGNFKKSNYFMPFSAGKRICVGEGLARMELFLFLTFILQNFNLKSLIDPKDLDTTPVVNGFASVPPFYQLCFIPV
T3 sequence (P10635 whole entry): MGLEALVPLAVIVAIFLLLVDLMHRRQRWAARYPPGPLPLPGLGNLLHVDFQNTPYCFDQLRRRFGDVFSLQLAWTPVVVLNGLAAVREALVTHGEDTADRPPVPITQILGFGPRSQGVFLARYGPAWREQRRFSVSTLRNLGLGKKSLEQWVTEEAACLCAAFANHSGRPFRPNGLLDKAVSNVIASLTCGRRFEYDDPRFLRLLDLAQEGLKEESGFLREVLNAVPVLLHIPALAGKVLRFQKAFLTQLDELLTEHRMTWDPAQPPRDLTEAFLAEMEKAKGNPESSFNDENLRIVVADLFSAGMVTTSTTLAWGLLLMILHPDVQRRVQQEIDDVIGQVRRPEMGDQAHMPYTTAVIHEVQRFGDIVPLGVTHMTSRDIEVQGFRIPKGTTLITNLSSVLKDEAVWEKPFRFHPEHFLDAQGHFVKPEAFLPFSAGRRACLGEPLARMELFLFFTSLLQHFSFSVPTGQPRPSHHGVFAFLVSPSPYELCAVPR

Structure (SMILES)	Residual rate (%) 0 min (in vitro; human, 0.5 μM) [%]	Residual rate (%) 15 min (in vitro; human, 0.5 μM) [%]	Residual rate (%) 30 min (in vitro; human, 0.5 μM) [%]	Residual rate (%) 60 min (in vitro; human, 0.5 μM) [%]	Residual rate (%) 120 min (in vitro; human, 0.5 μM) [%]	half-life at 0.5 μM (in vitro; human) [h]	half-life at 0.5 μM (in vitro; mouse) [h]	Residual rate (%) 0 min [1] [%]	Residual rate (%) 15 min [1] [%]	Residual rate (%) 30 min [1] [%]	Residual rate (%) 60 min [1] [%]	Residual rate (%) 120 min [1] [%]	half-life at 0.5 μM [1] [h]	Residual rate (%) 0 min [2] [%]	Residual rate (%) 15 min [2] [%]	Residual rate (%) 30 min [2] [%]	Residual rate (%) 60 min [2] [%]	Residual rate (%) 120 min [2] [%]	half-life at 0.5 μM [2] [h]	IC50 (CYP1A2) [nM]	also measured
C=CC(=O)N1C[C@H](C)N(c2nc(=O)n(-c3c(SC)ccnc3C(C)C)c3nc(-c4c(O)cccc4F)c(Cl)cc23)C[C@H]1C (single isomer, unassigned) [Embodiment 166-1]	100.00	99.15	94.74	89.14	78.85	5.64	7.75	100.00	93.20	98.32	99.08	96.46	108	100.00	99.98	98.79	93.69	86.16	8.88	–	Residual rate (%) 0 min (in vitro; mouse plasma, 37° C.): 100.00%; Residual rate (%) 15 min (in vitro; mouse plasma, 37° C.): 105.42%; Residual rate (%) 30 min (in vitro; mouse plasma, 37° C.): 100.02%; Residual rate (%) 60 min (in vitro; mouse plasma, 37° C.): 99.12%; Residual rate (%) 120 min (in vitro; mouse plasma, 37° C.): 85.55%
C=CC(=O)N1C[C@H](C)N(c2nc(=O)n(-c3c(SC)ccnc3C(C)C)c3nc(-c4c(N)ccc(Cl)c4F)c(Cl)cc23)C[C@H]1C (single isomer, unassigned) [Embodiment 165-1]	100.00	102.34	100.28	90.27	87.22	8.35	16.9	100.00	95.57	96.73	93.97	91.93	19.3	100.00	97.71	96.32	94.86	92.49	19.6	66.7	Residual rate (%) 0 min (in vitro; mouse, 0.5 μM): 100.00%; Residual rate (%) 15 min (in vitro; mouse, 0.5 μM): 100.58%; Residual rate (%) 30 min (in vitro; mouse, 0.5 μM): 99.52%; Residual rate (%) 60 min (in vitro; mouse, 0.5 μM): 99.64%; Residual rate (%) 120 min (in vitro; mouse, 0.5 μM): 92.32%; IC50 (CYP2C19): 28.8 nM; IC50 (CYP2D6): 21.2 nM; IC50 (CYP3A4; [3]): 4.7 nM; IC50 (CYP3A4; [4]): 9.1 nM; AUC(0-inf) (in vivo): 347 ng·h/mL; Cmax (in vivo): 264 ng/mL; MRT (in vivo): 1.5 h; Tmax (in vivo): 0.25 h; half-life (in vivo): 1 h
C=CC(=O)N1C[C@H](C)N(c2nc(=O)n(-c3c(SC)ccnc3C(C)C)c3nc(-c4c(O)cccc4F)c(F)cc23)C[C@H]1C (single isomer, unassigned) [Embodiment 114-1]	–	–	–	–	–	–	–	–	–	–	–	–	–	–	–	–	–	–	–	> 100	IC50 (CYP2C19): > 100 nM; IC50 (CYP2D6): > 100 nM; IC50 (CYP3A4; [3]): 19 nM; IC50 (CYP3A4; [4]): > 100 nM; AUC(0-inf) (in vivo): 1370 ng·h/mL; Cmax (in vivo): 1820 ng/mL; MRT (in vivo): 0.7 h; Tmax (in vivo): 0.25 h; half-life (in vivo): 0.6 h
